Test results taken from US9598365B2, “Method for synthesizing cycloalkanyl[b]indoles, cycloalkanyl[b]benzofurans, cycloalkanyl[b]benzothiophenes, compounds and methods of use” (Trustees of Dartmouth College, priority 2012, dated 2017).

Tests used:
[1] = Plasma compound exposure after oral dosing in mice; format: in vivo, Mice (male C57BL/6); conditions: male, C57BL/6, mouse, plasma, oral 100 mg/kg, 30 minutes post-dose, read-out: mean (±standard deviation) plasma levels
Description: Mice (male C57BL/6, 8-10 weeks of age) were fasted overnight by being placed in a clean cage without food. The next day, all mice were weighed and assigned to groups of similar body weights. Test compounds were formulated in 1% HEC, 0.25% TWEEN 80, 0.05% antifoam (vehicle control). Compounds 11ls and llu were orally dosed (100 mg/kg) and cardiac sticks were done on CO2 euthanized mice at 30 minutes post-dose. Blood (500+μL whole blood) from the cardiac stick was placed in chilled EDTA-plasma tubes with inhibitors, DPP4 inhibitor (5 μL/500 μL blood) and aprotinin (bovine lung, […]/500 μL blood), and stored on ice. Plasma was separated by centrifugation and aliquoted for compound exposure to total GIP and GLP-1 (X-36 amide). Plates for compound exposure were analyzed for absorption, distribution, metabolism, and excretion, while conventional kits were used for GLP-1 (x-36) amide (Mesoscale) and GIP (Millipore) analyses.

[2] = tested on: SNU-C1; test: K-Ras Wnt synthetic lethal, SNU-C1 KrasSL; format: cell-based; conditions: Homo sapiens, read-out: SNU-C1 KrasSL % Inhibit
Text: (§1) Selected compounds of this invention were screened for K-Ras Wnt synthetic lethal, anti-angiogenic activity, Wnt pathway modulatory activity, insulin and GLP-1 secretion modulatory activity, GPR119 receptor agonist activity, mGlu2R antagonist activity, CGRP receptor antagonist activity, Apelin receptor agonist activity and hexokinase 2 inhibitory activity using the PD^2 and TD^2 Screening Panel (Eli Lilly & Company). See Lee, et al. (2011) J. Biomol. Screen. 16:588-602.

[3] = tested on: Wnt Pathway; test: Wnt pathway modulatory activity, Osteo bCat; format: cell-based
Text: as §1

[4] = tested on: RKO; test: K-Ras Wnt synthetic lethal, RKO KrasSL; format: cell-based; conditions: Homo sapiens, average of three independent experiments, read-out: RKO KrasSL % Inhibit
Text: as §1

[5] = biological target: T1, hGPR119 (Homo sapiens, UniProt Q8TDV5); test: GPR119 receptor agonist, hGPR119 agonism; format: cell-based; conditions: @ 10 μM
T1 sequence (Q8TDV5 1-335): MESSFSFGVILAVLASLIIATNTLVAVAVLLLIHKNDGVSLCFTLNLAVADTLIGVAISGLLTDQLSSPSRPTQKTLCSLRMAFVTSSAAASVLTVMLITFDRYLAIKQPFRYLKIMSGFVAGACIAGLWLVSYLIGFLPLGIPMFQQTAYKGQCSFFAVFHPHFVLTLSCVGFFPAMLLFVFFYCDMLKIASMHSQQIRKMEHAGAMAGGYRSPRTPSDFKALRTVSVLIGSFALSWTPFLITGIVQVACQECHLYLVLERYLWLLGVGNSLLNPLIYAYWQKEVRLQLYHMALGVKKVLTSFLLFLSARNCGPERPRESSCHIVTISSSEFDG
Text: as §1

Question: Which concentration at 30 min [1] does the source give for `CC1(C)c2c([nH]c3ccc(Cl)cc23)C2C=CC1C2` (stereo not shown) [Compound 11s] here?
Answer: Its concentration at 30 min is 412 ± 88.2 ng/mL.

Question: And the inhibition at 0.2 µM ([2]; @ 0.2 μM)?
Answer: The inhibition at 0.2 µM was 15.7%.

Question: And the inhibition at 2 µM ([2]; @ 2 μM)?
Answer: Its inhibition at 2 µM is 5.5%.

Question: What about the inhibition at 20 µM ([2]; @ 20 μM) of the same compound?
Answer: Its inhibition at 20 µM is 106%.

Question: And the “Osteo bCat % Stimulation” value ([3]; @ 2 μM)?
Answer: The value was 1.3%.

Question: What about the “Osteo bCat % Stimulation” value ([3]; @ 10 μM) of the same compound?
Answer: Its value is 9.3%.

Question: What about the inhibition at 0.2 µM ([4]; @ 0.2 μM) of the same compound?
Answer: Its inhibition at 0.2 µM is -2.8%.

Question: And the inhibition at 2 µM ([4]; @ 2 μM)?
Answer: Its inhibition at 2 µM is 14.4%.

Question: And the inhibition at 20 µM ([4]; @ 20 μM)?
Answer: The inhibition at 20 µM was 102%.

Question: And the “hGPR119 agonism % Stimulation” value [5]?
Answer: The value was −5.1%.
